# Key:
# Experiment in all cases: relative viability (nuclei count vs DMSO), 5 days (fraction); higher = more cells survive
# JZL-184 + Trametinib = compound: C1CN(CCC1C(C2=CC3=C(C=C2)OCO3)(C4=CC5=C(C=C4)OCO5)O)C(=O)OC6=CC=C(C=C6)[N+](=O)[O-] [JZL-184] + CC(=O)Nc1cccc(-n2c(=O)n(C3CC3)c(=O)c3c(Nc4ccc(I)cc4F)n(C)c(=O)c(C)c32)c1 [Trametinib] (partner 0.02 µM)
# How it was run: (§1)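 Relative viability divides the nuclei count in treated wells by that in vehicle wells. Lung cancer cell lines were seeded in 1536-well plates, dosed by pin tool the next day, and fixed and stained after 5 days in one step with final 0.05% Triton X-100, 1% formaldehyde and 1 ug/ml Hoechst. Dosing was a single drug or a fixed anchor-drug dose plus five library-drug doses (not always all listed) in √10 steps, and values are medians of duplicate plates imaged at 4×.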
# JZL-184 + AZD7762 = compound: C1CN(CCC1C(C2=CC3=C(C=C2)OCO3)(C4=CC5=C(C=C4)OCO5)O)C(=O)OC6=CC=C(C=C6)[N+](=O)[O-] [JZL-184] + NC(=O)Nc1cc(-c2cccc(F)c2)sc1C(=O)N[C@H]1CCCNC1 [AZD7762] (partner 0.2 µM)
# How it was run: as §1
# JZL-184 + Decitabine = compound: C1CN(CCC1C(C2=CC3=C(C=C2)OCO3)(C4=CC5=C(C=C4)OCO5)O)C(=O)OC6=CC=C(C=C6)[N+](=O)[O-] [JZL-184] + Nc1ncn([C@H]2C[C@H](O)[C@@H](CO)O2)c(=O)n1 [Decitabine] (partner 2 µM)
# How it was run: as §1
# JZL-184 + Luminespib = compound: C1CN(CCC1C(C2=CC3=C(C=C2)OCO3)(C4=CC5=C(C=C4)OCO5)O)C(=O)OC6=CC=C(C=C6)[N+](=O)[O-] [JZL-184] + CCNC(=O)c1noc(-c2cc(C(C)C)c(O)cc2O)c1-c1ccc(CN2CCOCC2)cc1 [Luminespib] (partner 0.01 µM)
# How it was run: as §1
# JZL-184 + Navitoclax = compound: C1CN(CCC1C(C2=CC3=C(C=C2)OCO3)(C4=CC5=C(C=C4)OCO5)O)C(=O)OC6=CC=C(C=C6)[N+](=O)[O-] [JZL-184] + CC1(C)CCC(c2ccc(Cl)cc2)=C(CN2CCN(c3ccc(C(=O)NS(=O)(=O)c4ccc(N[C@H](CCN5CCOCC5)CSc5ccccc5)c(S(=O)(=O)C(F)(F)F)c4)cc3)CC2)C1 [Navitoclax] (partner 0.5 µM)
# How it was run: as §1
Cell Line,relative viability (JZL-184 + Trametinib; first compound 0.04 µM),relative viability (JZL-184 + Trametinib; first compound 0.4 µM),relative viability (JZL-184 + Trametinib; first compound 1.265 µM),relative viability (JZL-184 + Trametinib; first compound 4 µM),relative viability (JZL-184 + AZD7762; first compound 0.04 µM),relative viability (JZL-184 + AZD7762; first compound 0.4 µM),relative viability (JZL-184 + AZD7762; first compound 1.265 µM),relative viability (JZL-184 + AZD7762; first compound 4 µM),relative viability (JZL-184 + Decitabine; first compound 0.04 µM),relative viability (JZL-184 + Decitabine; first compound 0.4 µM),relative viability (JZL-184 + Decitabine; first compound 1.265 µM),relative viability (JZL-184 + Decitabine; first compound 4 µM),relative viability (JZL-184 + Luminespib; first compound 0.04 µM),relative viability (JZL-184 + Luminespib; first compound 0.4 µM),relative viability (JZL-184 + Luminespib; first compound 1.265 µM),relative viability (JZL-184 + Luminespib; first compound 4 µM),relative viability (JZL-184 + Navitoclax; first compound 0.04 µM),relative viability (JZL-184 + Navitoclax; first compound 0.4 µM),relative viability (JZL-184 + Navitoclax; first compound 1.265 µM),relative viability (JZL-184 + Navitoclax; first compound 4 µM)
201T,0.676,0.724,0.706,0.688,0.711,0.57,0.586,0.611,0.83,0.84,0.841,0.845,1.05,1.05,1.04,1.03,1.23,1.19,1.17,1.18
A549,,,,,,,,,0.278,,0.26,0.273,,,,,1.18,1,1.24,1.23
A-427,0.757,0.75,0.821,0.684,0.807,0.722,0.838,0.703,0.617,0.585,0.599,0.537,1.14,0.79,1.11,0.972,1.02,0.879,0.962,0.992
ABC-1,,,,,,,0.715,0.968,1.59,1.07,1.03,1.22,1.23,0.557,0.628,0.495,,,,
BEN,0.967,1.06,1.07,1.04,0.731,0.666,0.752,0.792,0.742,0.537,0.78,0.767,0.421,0.318,0.67,0.281,0.0556,0.0635,0.0659,0.0756
CAL-12T,0.341,0.356,0.352,0.341,0.712,0.531,0.7,0.613,,,,,0.478,0.449,0.849,0.395,1.33,1.1,1.15,1.15
COR-L23,0.774,0.516,0.684,0.54,,,,,0.474,0.414,0.412,0.397,0.776,0.7,0.781,0.642,1.13,0.87,1.05,0.968
COR-L 105,0.454,0.443,0.439,0.414,,,,,0.686,0.648,0.613,0.611,0.899,0.818,0.901,0.741,0.878,0.813,0.905,0.585
ChaGo-K-1,0.925,0.849,0.929,0.788,0.865,0.761,0.933,0.832,0.505,0.498,0.514,0.526,0.592,0.591,0.623,0.598,1.47,0.896,1.29,0.962
EKVX,0.322,0.348,0.364,0.359,0.732,0.688,0.793,0.645,0.354,0.412,0.396,0.363,0.795,0.71,0.944,0.863,1,0.946,0.922,0.895
EMC-BAC-2,0.955,0.899,0.832,0.827,1.16,1.11,1.14,1.08,1.02,0.946,0.958,0.944,1.26,1.11,1.24,1.09,1.22,1.12,1.17,1.11
EPLC-272H,0.288,0.32,0.272,0.23,0.194,0.186,0.211,0.302,0.356,0.386,0.396,0.384,0.242,0.241,0.886,0.84,1.12,1.11,1.2,1.25
H3255,0.71,0.581,0.684,0.549,0.945,0.743,0.948,0.86,0.648,0.63,0.59,0.646,1.03,0.765,1,0.938,0.589,0.492,0.678,0.522
HARA,0.678,,0.652,0.696,0.126,,0.43,0.379,0.621,,0.561,0.468,0.808,0.739,1.03,0.757,1.19,1.06,1.15,1.14
HCC-15,0.384,0.353,0.413,0.431,1,1.21,1.3,1.14,0.625,0.692,0.647,0.575,0.421,0.294,0.343,0.339,0.754,0.704,0.759,0.703
HCC-44,1.04,1.07,1.04,1.01,1.14,1.01,1.03,0.987,1.05,0.942,0.964,0.99,1.59,0.973,1.09,1.09,1.02,0.953,0.954,0.876
HCC-78,0.705,,0.912,0.565,0.594,,0.688,0.618,0.77,,0.793,0.646,,,,,0.709,0.75,0.724,0.551
HCC-366,0.384,0.348,0.332,0.276,0.293,0.209,0.275,0.257,0.348,0.357,0.336,0.314,,,,,1.21,1.03,1.07,1.06

Cell Line,relative viability (JZL-184 + Trametinib; first compound 0.04 µM),relative viability (JZL-184 + Trametinib; first compound 0.4 µM),relative viability (JZL-184 + Trametinib; first compound 1.265 µM),relative viability (JZL-184 + Trametinib; first compound 4 µM),relative viability (JZL-184 + AZD7762; first compound 0.04 µM),relative viability (JZL-184 + AZD7762; first compound 0.4 µM),relative viability (JZL-184 + AZD7762; first compound 1.265 µM),relative viability (JZL-184 + AZD7762; first compound 4 µM),relative viability (JZL-184 + Decitabine; first compound 0.04 µM),relative viability (JZL-184 + Decitabine; first compound 0.4 µM),relative viability (JZL-184 + Decitabine; first compound 1.265 µM),relative viability (JZL-184 + Decitabine; first compound 4 µM),relative viability (JZL-184 + Luminespib; first compound 0.04 µM),relative viability (JZL-184 + Luminespib; first compound 0.4 µM),relative viability (JZL-184 + Luminespib; first compound 1.265 µM),relative viability (JZL-184 + Luminespib; first compound 4 µM),relative viability (JZL-184 + Navitoclax; first compound 0.04 µM),relative viability (JZL-184 + Navitoclax; first compound 0.4 µM),relative viability (JZL-184 + Navitoclax; first compound 1.265 µM),relative viability (JZL-184 + Navitoclax; first compound 4 µM)
HCC-827,0.536,0.55,0.583,0.515,0.147,0.182,0.19,0.206,0.297,0.191,0.306,0.312,0.804,0.587,0.91,0.671,1.04,1.01,1.02,0.981
LCLC-103H,0.644,0.664,0.691,0.674,0.791,0.764,0.833,0.754,0.768,0.817,0.815,0.778,1.04,0.829,0.835,0.866,,,,
NCI-H358,0.146,0.133,0.148,0.15,0.585,0.639,0.569,0.51,0.241,0.211,0.237,0.21,0.387,0.279,0.308,0.304,,,,
NCI-H520,0.729,0.63,0.686,0.651,,,,,0.546,0.545,0.503,0.477,0.222,0.226,0.239,0.209,1.19,1.13,1.15,1.04
NCI-H522,0.856,0.758,0.791,0.802,0.898,0.706,0.885,0.781,0.689,0.615,0.685,0.611,1.29,1.14,1.18,1.29,,,,
NCI-H650,1.06,0.871,0.963,0.995,0.997,1.1,1.07,0.988,0.308,0.319,0.317,0.306,0.854,0.647,0.802,0.806,,,,
NCI-H661,0.606,0.531,0.548,0.586,,,,,0.624,0.526,0.518,0.537,0.969,0.898,0.938,0.975,,,,
NCI-H1650,0.778,0.403,0.801,0.657,,,,,0.405,0.464,0.471,0.425,0.225,0.207,0.216,0.178,1.64,1.08,1.39,1.06
NCI-H1703,,,,,0.106,0.117,0.129,0.112,,,,,,,,,1.6,0.852,1.54,1.4
NCI-H2009,0.228,0.276,0.329,0.301,,,,,0.425,0.385,0.363,0.446,1.1,0.917,1.08,1.02,1.18,0.951,1.17,1.17
NCI-H2023,0.717,0.612,0.568,0.54,,,,,0.254,0.225,0.175,0.213,0.958,0.624,0.918,0.575,1.07,0.942,1.02,0.963
NCI-H2228,0.465,0.472,0.704,0.629,,,,,,,,,0.142,0.1,0.168,0.122,0.841,0.823,0.836,0.91
NCI-H2342,0.837,0.785,0.972,0.756,0.556,0.39,0.563,0.6,0.736,0.691,0.716,0.817,0.687,0.61,0.683,0.783,,,,
SK-LU-1,0.448,0.402,0.653,0.46,,,,,0.673,0.584,0.705,0.698,0.312,0.201,0.215,0.2,1.36,0.866,0.915,0.823
SK-MES-1,0.623,0.524,0.609,0.5,,,,,0.448,0.381,0.405,0.403,0.913,0.765,0.874,0.726,1.35,1.14,1.12,1.17
SW 900,0.74,0.783,0.864,0.693,0.573,0.756,0.627,0.594,0.465,0.416,0.465,0.451,0.16,0.18,0.18,0.196,,,,
SW 1573,0.602,0.564,0.589,0.445,,,,,0.818,0.449,0.484,0.463,0.224,0.276,0.251,0.222,0.913,0.912,1.21,1.16
UMC-11,0.891,0.679,0.736,0.646,,,,,0.738,0.521,0.616,0.733,1.26,0.992,1.05,1.04,0.349,0.318,0.349,0.302

# — the supplement of paper PMC10307832
